Data taken from patent US20060068118A1, “Silicon-containing treatments for solid substrates” (priority 2003, published 2006).

Columns and labels:
test microbes = assay: Dow Corning Test Method 0923 Dynamic Shake Flask Test (ASTM E-2149-01), Table I; assay type: cell-based; details: shingle, vs untreated controls
Experimental: (§1) The BPB test is a standardized test known as the Bromphenol Blue Extraction Method having a Dow Corning Corporate test number 0824, except that the test was modified in the following manner. The chlorinated solvent has been eliminated and the wavelength is 595 nm. Further, the Dow Corning® Q25211 has been substituted for the Triton RTM.X100 wetting agent of the test. What is measured is the diminution of the BPB absorbance at 595 nm relative to the BPB standard solution and it is reported in percent extraction. Antimicrobial efficacy was determined using the Dow Corning Test Method 0923 Dynamic Shake Flask Test (ASTM E-2149-01) unless otherwise stated.
Application technologies were compared for a shingle substrate at constant add levels and room temperature conditions. Samples were prepared as follows and compared. The Samples included: antimicrobial agent (AA) by itself (Sample 1) and the (AA) in 0.1M Na2C2O4 (Sample 2) with a polyoxyethylene nonylphenol (the surfactant). Sample 1 treated with Methyl Siliconate is Sample 3, Sample 1 treated with sodium silicate is Sample 4 and sample 1 treated with Everwood is Sample 5. The Samples were handled as in example 1 and tested.

E. Coli = assay: Dynamic Shake Flask Test, % E. Coli reduction; assay type: cell-based; details: Example 4, AA 1.25 mg/inch^2, vs untreated control substrates
Experimental: as §1
Studies were carried out to determine if this invention was applicable to various substrates in the building products area, such as Oriented Strand Board (OSB), vinyl siding, polymer wood composite decking and dimensional lumber. The application process was: samples were cut to 2 inches by 2 inches and weighed prior to application. A hand pump mist sprayer was used to treat the substrate. The applications of the silicate/siliconate and (AA) were kept to a minimum of less than 3 seconds application timne. Treated samples were next rinsed with copious cold water to remove any excess treatment material. There was no heating or other curing or drying of the samples.

[1] = Reaction of hydrolyzed silanes with treatment enhancers, solution appearance; assay type: physicochemical

Molecule: CCCCCCCCCCCCCCCCCC[N+](C)(C)CCC[Si](OC)(OC)OC.[Cl-] [Sample 1, N,N-dimethyl-N-Octadecyl-3-(trimethoxysilyl)propanaminium chloride]
- % Reduction (test microbes; AA Actives 0.50%): 0%
- % Reduction (test microbes; AA Actives 1%): 0%
- OSB % Red. ext. (% E. Coli Reduction) (E. Coli; OSB): 31%
- decking % Red. ext. (% E. Coli Reduction) (E. Coli; decking): 0%
- shingle % Red. ext. (% E. Coli Reduction) (E. Coli; shingle): 11%
- siding % Red. ext. (% E. Coli Reduction) (E. Coli; siding): 0%
- wood % Red. ext. (% E. Coli Reduction) (E. Coli; wood): 21%

Molecule: CCO[Si](CC(C)C)(OCC)OCC [Sample Z-6043, i-butyltriethoxysilane]
- Appearance (at Time Min.) [1]: clear
- Appearance (at Time hours) [1]: clear

Molecule: potassium methyl siliconate [DC-777]
- appearance on standing ([1]; treatment enhancer alone, 1.5% actives level, after 4 days of standing): white precipitate
